Laboratory results from paper PMC10057977, “Use of In Vivo Imaging and Physiologically-Based Kinetic Modelling to Predict Hepatic Transporter Mediated Drug–Drug Interactions in Rats” (Pharmaceutics, 2023).
Where two headings read alike, the source gives them in different places.

What was measured:
[1] = cited from earlier work
[2] = Compartmental pharmacokinetic models of test drugs fitted to published rat data
Text: For all the selected drugs, compartmental pharmacokinetic models were developed to inform dose selection in the DCE-MRI studies. The one-compartment, two-compartment, or three-compartment pharmacokinetic models, following intravenous and oral administration, were fitted to published pharmacokinetic data for these drugs in rats. The models assumed linear pharmacokinetics of the six drugs investigated, to allow identification of the model parameters with the limited available rat pharmacokinetic data. […] The model equations, sources of pharmacokinetic data, parameters estimates, and criteria for the dose selection for all the drugs are reported in the Supplementary Material, Section S1. […]
The University of Manchester, Manchester M13 9PL, UK […]
S1. Pharmacokinetic models for test compounds
Pharmacokinetic models were developed for selected test compounds to inform dose selection in the dynamic contrast enhanced magnetic resonance imaging (DCE-MRI) studies, as described below. The one-compartment (Eq. S1–
Eq. S2), two-compartment (Eq. S3–Eq. S5), or three-compartment pharmacokinetic model (Eq. S6 –Eq. S9), following intravenous (IV) and oral administration, was fitted to available pharmacokinetic data in rat (Table S1). The precision of the parameter estimates (% coefficient of variation; CV) was calculated as described previously. […]
dA1(t) = R + k ∙A (t) − k ∙A (t) for 0 < t < Tinf […]
dA1(t)= ka ∙AG(t) − k10 ∙ A1(t) for t > Tinf S1 […]
dA1(t) = R + k ∙A (t) − (k + k )A (t) + k ∙A (t) for 0 < t < Tinf […]
dA1(t) = k ∙A (t) − (k + k )A (t) + k ∙ A (t) for t > Tinf
dA2(t)= k A (t) − k A (t) S4
dA1(t) = Rinf − (k10 + k12 + k13)A1(t) + k21 ∙ A2(t) + k31 ∙ A3(t) for 0 < t < Tinf […]
dA1(t) = −(k + k + k )A (t) + k ∙ A (t) + k ∙ A (t) for t > Tinf
dA2(t) = k A (t) − k A (t) S7
dA3(t) = k A (t) − k A (t) S8
Initial conditions for oral dose and IV bolus (Rinf=0):
• Oral dose: AG(0) = dose ∙F, all the other compartments equal to 0;
• IV bolus: A1(0) = dose, all the other compartments equal to 0.
Where t is time, An(t) is amount in compartment n at time t; Rinf is IV infusion rate; Tinf is the duration of IV infusion; ka, k10, k12, k21, k13 and k31 are rate constants; V1 is volume of compartment 1; F is oral bioavailability; and Y is the meas-ured drug concentration in plasma or blood.
These models assume linear kinetics of the test compounds, despite known non-linearity in pharmacokinetics for […]
The assumption of linear kinetics allowed simplification of the modelling exercise and enabled identification of the model parameters with the available pharmacokinetic data. The models were used to simulate test compound concentrations in plasma under different dosing schedules, to determine suitable doses for in vivo DCE-MRI studies.

OATP1B3 = tested on: OATP1B3; design: method as in earlier work; details: in vitro; ref 30,43-55 and in-house data from Merck & Co.; cited from earlier work
OATP1B1 = tested on: OATP1B1; design: method as in earlier work; details: in vitro; bracket not explained in the table; ref 30,43-55 and in-house data from Merck & Co.; cited from earlier work
[3] = fraction unbound in plasma; cited from earlier work
[4] = two-compartment model, rat plasma, fitted to published IV data
[5] = three-compartment model, rat, IV data (ciclosporin: blood; bosentan: plasma, example estimates)
[6] = one-compartment model, rat, fitted to published PK data

For `C=C[C@@H]1C[C@]1(NC(=O)[C@@H]1C[C@@H](Oc2ncc(OC)c3ccc(Cl)cc23)CN1C(=O)[C@@H](NC(=O)OC(C)(C)C)C(C)(C)C)C(=O)NS(=O)(=O)C1CC1` [Asunaprevir], the Cmax ([1]; human plasma, daily dose 200 mg (asunaprevir), read-out: Cmax (µM) [Daily Dose]) is given as 0.76 µM, the “V1” value [2, 4] is given as 96.0 mL and the “k10” value [2, 4] is given as 6.79 h⁻¹. For the same compound, the “k12” value [2, 4] was 3.71 h⁻¹, the “k21” value [2, 4] was 1.60 h⁻¹ and the IC50 (OATP1B3) was 0.65 µM. For the same compound, the IC50 (OATP1B1) was 0.55 µM.

For `COc1ccccc1Oc1c(NS(=O)(=O)c2ccc(C(C)(C)C)cc2)nc(-c2ncccn2)nc1OCCO` [Bosentan], the Cmax ([1]; human plasma, daily dose 250 mg, read-out: Cmax (µM) [Daily Dose]) is listed as 3.3 µM, the “k10” value ([2]; three-compartment model, rat, IV data (ciclosporin: blood; bosentan: plasma, example estimates highly sensitive to initial estimates)) is listed as 5.1 h⁻¹ and the “K31” value [2, 5] is listed as 0.13 h⁻¹. For the same compound, the “V1” value [2, 5] was 26 mL, the “k12” value [2, 5] was 6.1 h⁻¹ and the “k13” value [2, 5] was 0.90 h⁻¹. The “k21” value [2, 5] was 4.3 h⁻¹, the “V1” value [2, 4] was 32 mL and the “k10” value [2, 4] was 5.0 h⁻¹. The “k12” value [2, 4] was 3.8 h⁻¹, the “k21” value [2, 4] was 3.5 h⁻¹ and the IC50 (OATP1B3) was 5.2 µM. The fu [3] was <0.02 and the IC50 (OATP1B1) was 6.6 µM.

For `CCc1ccc(CCOc2ccc(CC3SC(=O)NC3=O)cc2)nc1` (stereo not shown) [Pioglitazone], the Cmax ([1]; human plasma, daily dose 30 mg, read-out: Cmax (µM) [Daily Dose]) is given as 4.8 µM, the “V1” value [2, 6] is given as 88 mL and the F ([2]; oral bioavailability, one-compartment model, rat) is given as 0.66. For the same compound, the IC50 (OATP1B3) was 3.41 µM and the fu [3] was <0.01.

For `CO[C@H]1/C=C/O[C@@]2(C)Oc3c(C)c(O)c4c(O)c(c(/C=N/N5CCN(C)CC5)c(O)c4c3C2=O)NC(=O)/C(C)=C\C=C\[C@H](C)[C@H](O)[C@@H](C)[C@@H](O)[C@@H](C)[C@H](OC(C)=O)[C@@H]1C` [Rifampicin], the Cmax ([1]; human plasma, daily dose 600 mg, read-out: Cmax (µM) [Daily Dose]) is given as 0.85 µM, the Cmax ([1]; human, ref supplement [17], read-out: typical maximum plasma concentration (Cmax) in clinical studies) is given as 4 to 20 µM and the “V1” value [2, 6] is given as 182.1 mL. The “k10” value [2, 6] was 0.294 h⁻¹, the IC50 (OATP1B3) was 0.11 µM and the fu [3] was 0.2. For the same compound, the IC50 (OATP1B1) was 1.9 µM and the Ki (OATP1B1) was 0.67 µM.
